Data as given in US20230108934A1, “Stabilizing Camptothecin Pharmaceutical Compositions” (Ipsen Biopharm Ltd., priority 2015, published 2023).
Read-outs that look alike come from different tables or passages of the source.

Experiments:
[1] = Solubility determination of irinotecan sucrosofate in water; assay type: physicochemical; settings: deionized water, 4-6° C., 22 hours
Protocol: An amount of 1.64 g of irinotecan hydrochloride trihydrate was added to 160 mL of water acidified with 0.008 mL of 1 N HCl, and heated on a 65° C. water bath with stirring until the drug was dissolved. Five mL of 0.46 M (based on sulfate concentration) triethylammonium sucrosofate were added with intensive stirring, and stirred for five minutes more. […] The precipitate was separated by centrifugation, and the supernatant solution was discarded. The pellet was resuspended in five volumes of deionized water, and precipitated by centrifugation; this washing step was repeated two more times until the pH of the suspension was about 5.8. […] An aliquot of the product was solubilized in 1 N HCl and analyzed for irinotecan (by spectrophotometry at 365 nm in 70% aqueous isopropanol-0.1 N HCl) and for sulfate after hydrolysis in a diluted (1:4) perchloric acid using a barium sulfate turbidimetric assay. […] The samples were incubated with agitation at 4-6° C. for 22 hours, the solid material was removed by centrifugation for 10 min at 14000 g, and the supernatant fluid was analyzed for irinotecan by spectrophotometry.

[2] = cited from earlier work

| SMILES | concentration of irinotecan in solution ([1]; final drug salt concentration 0.93 mg/mL) | concentration of irinotecan in solution ([1]; final drug salt concentration 1.85 mg/mL) | concentration of irinotecan in solution ([1]; final drug salt concentration 3.71 mg/mL) | irinotecan in the more active lactone form ([2]; pH 6.0) | irinotecan in the more active lactone form ([2]; pH 6.5) | irinotecan in the more active lactone form ([2]; pH 7.5) |
| --- | --- | --- | --- | --- | --- | --- |
| CCc1c2c(nc3ccc(OC(=O)N4CCC(N5CCCCC5)CC4)cc13)-c1cc3c(c(=O)n1C2)COC(=O)[C@]3(O)CC [irinotecan sucrosofate] | 58.9±0.90 micro-g/mL | 63.2±0.6 micro-g/mL | 63.4±1.3 micro-g/mL |  |  |  |
| CCc1c2c(nc3ccc(OC(=O)N4CCC(N5CCCCC5)CC4)cc13)-c1cc3c(c(=O)n1C2)COC(=O)[C@]3(O)CC [irinotecan] |  |  |  | about 85% | about 65% | about 15% |
